Measurements published in patent US10472349B2, “Salt of pyridinyl amino pyrimidine derivative, preparation method therefor, and application thereof” (SHANGHAI ALLIST PHARMACEUTICALS, INC., priority 2016, dated 2019).
Counter-ions that a name gives are not always drawn. One block for each compound: values may come before it.

How the values were obtained:
[1] = Drug absorption experiment in SD rats, intragastric administration; format: in vivo, SD rats (Sprague Dawley rats); conditions: for half-life: read-out: T1/2 (elimination half-life) (converted)
Experimental: The determination method for the absolute bioavailability of the intragastric administration of the mesylate salts of the compound of formula (I) is as follows: • For intravenous administration: Healthy SD rats are randomly grouped. The tested compound is administered in a certain dosage D through the intravenous administration. The blood samples are collected through the retrobulbar venous plexus before the administration and 5 min, 15 min, 0.5 h, 1.0 h, 2.0 h, 4.0 h, 8.0 h, 12 h and 24 h after the administration, and separated to give plasmas. […] The tested substance is administered in a certain dosage D through the intragastric administration.
After dosage calibration, the absolute bioavailability F is calculated by the area under the drug concentration-time curve (AUC0-t). The calculation equation is as follows: F=(AUCintragastric×Dintravenous)/(AUCintravenous[…])×100%.
For intragastric administration: 16 healthy (half male and half female) SD rats with 200-280 g body weight, provided by Shanghai Sippr-BK laboratory animal Co. Ltd., were assigned randomly to 4 groups.
After dosage calibration, the absolute bioavailability F was obtained by calculation of AUC0-t. The calculation equation was as follows: F=(AUCintragastric×Dintravenous)/(AUCintravenous×Dintragastric)×100%. The obtained absolute bioavailability F data are shown in the above table 2.

[2] = Drug absorption experiment in SD rats, intravenous administration; format: in vivo, SD rats (Sprague Dawley rats); conditions: plasma
Experimental: The determination method for the absolute bioavailability of the intragastric administration of the mesylate salts of the compound of formula (I) is as follows: • For intravenous administration: Healthy SD rats are randomly grouped. The tested compound is administered in a certain dosage D through the intravenous administration. The blood samples are collected through the retrobulbar venous plexus before the administration and 5 min, 15 min, 0.5 h, 1.0 h, 2.0 h, 4.0 h, 8.0 h, 12 h and 24 h after the administration, and separated to give plasmas. The concentration of the drug in plasma is determined with the liquid chromatography-tandem mass spectrometry method to give a drug concentration-time curve. • For intragastric administration: Healthy SD rats are randomly grouped. The tested substance is administered in a certain dosage D through the intragastric administration. The intravenous blood samples are collected through the rat's retrobulbar venous plexus before the administration and 0.5, 1.0, 2.0, 4.0, 6.0, 8.0, 10, 12 and 24 h after the administration, and separated to give plasmas. The concentration of the drug in plasma is determined with the liquid chromatography-tandem mass spectrometry method to give a drug concentration-time curve.
For intravenous administration: 16 healthy (half male and half female) SD rats with 200-280 g body weight, provided by Shanghai Sippr-BK laboratory animal Co. Ltd., were assigned randomly to 4 groups. […] 0.2 ml of the intravenous blood samples were collected through the rat's retrobulbar venous plexus before the administration and 5 min, 15 min, 0.5 h, 1.0 h, 2.0 h, 4.0 h, 8.0 h, 12 h and 24 h after the administration, and separated to give plasmas. The concentration of the drug in plasma was determined with the liquid chromatography-tandem mass spectrometry method to give a drug concentration-time curve.
T1/2: elimination half-life; Cmax: maximum drug concentration in plasma; AUC0-t: area under drug concentration-time curve.

[3] = system: subcutaneously transplanted tumors of human lung cancer H1975; test: Inhibition effect on the growth of subcutaneously transplanted tumors of human lung cancer H1975-bearing nude mice; format: in vivo; conditions: 25 mg/kg intragastric, once per day for 21 days
Excerpt: The pharmacodynamics of the mesylate salts of the compound of formula (I) in terms of inhibiting the growth of transplanted tumors in animal may be assayed by conventional methods. One preferable evaluation method aims to the inhibitory effect on the growth of subcutaneously transplanted tumors of human lung cancer H1975-bearing nude mice. The experimental method may be as follows: human lung cancer H1975 cell strain (5×10^6/each mouse) is inoculated to nude mice subcutaneously at the right side of the back thereof. After the tumors grow to 100-150 mm^3 on average, the animals are divided into groups randomly according to the tumor size and the animal weight. […] During the entire experimental process, the animal weight and the tumor size are measured twice per week, so as to observe whether or not the toxic reaction occurs.
The tumor volume is calculated as follows: Tumor volume (mm^3)=0.5×Tumor major diameter×Tumor minor diameter×Tumor minor diameter. […]
Cell cultivation: H1975 was placed in a RPMI-1640 medium containing 10% FBS, and cultivated in a temperature-constant incubator containing 5% CO2 at 37° C. The cells in exponential growth phase were collected and counted for inoculation. […]
The tumor volume was calculated as follows: Tumor volume (mm^3)=0.5×Tumor major diameter×Tumor minor diameter×Tumor minor diameter.

[4] = both sexes, Sprague-Dawley, rat, plasma, po, intragastric, dosage 10 (Example 1), 10 (Example 2), 6 (Comparative Example 1), 10 (Comparative Example 2) mg/kg, plasma, read-out: AUC0-t
[5] = both sexes, Sprague-Dawley, rat, plasma, po, intragastric, dosage 10 (Example 1), 10 (Example 2), 6 (Comparative Example 1), 10 (Comparative Example 2) mg/kg, plasma, read-out: Cmax
[6] = both sexes, Sprague-Dawley, rat, plasma, po, intragastric, dosage 10 (Example 1), 10 (Example 2), 6 (Comparative Example 1), 10 (Comparative Example 2) mg/kg, plasma
[7] = SD rats, intravenous, dosage 2.5 (Example 1), 4.0 (Example 2), 3.0 (Comparative Example 1), 4.0 (Comparative Example 2) mg/kg
[8] = intragastric, dosage 10 (Example 1), 10 (Example 2), 6 (Comparative Example 1), 10 (Comparative Example 2) mg/kg, plasma

AUC(0-t) [1, 4]: 77.7 ng·h/mL | Cmax [1, 5]: 12.6 ng/mL | half-life [1, 6]: 8.6 h
Compound: C=CC(=O)Nc1cc(Nc2nccc(-c3cn(C)c4ccccc34)n2)c(OC(C)C)nc1N(C)CCN(C)C [Comparative Example 1, reference compound]

AUC(0-t) [1, 4]: 172 ng·h/mL | Cmax [1, 5]: 28.3 ng/mL | half-life [1, 6]: 5.76 h
Compound: C=CC(=O)Nc1cc(Nc2ncc(Cl)c(-c3cn(C)c4ccccc34)n2)c(OC(C)C)nc1N(C)CCN(C)C [Comparative Example 2, reference compound]

Compound: C=CC(=O)Nc1cc(Nc2nccc(-c3cn(C)c4ccccc34)n2)c(OCC(F)(F)F)nc1N(C)CCN(C)C [Example 1, N-{2-{[2-(dimethylamino)ethyl](methyl)amino}-6-(2,2,2-trifluoroethoxy)-5-{[4-(1-methyl-1H-indol-3-yl)pyrimidin-2-yl]amino}pyridin-3-yl}acrylamide]
AUC(0-t) [2, 7]: 307.3 ng·h/mL | Cmax [2, 7]: 81.3 ng/mL | T1/2 (elimination half-life) [2, 7]: 3.96 h | AUC(0-t) [1, 4]: 232 ng·h/mL | F (absolute bioavailability) ([1]; intragastric vs intravenous, calculated from AUC0-t after dosage calibration): 18.85% | Cmax [1, 8]: 17.6 ng/mL

Compound: C=CC(=O)Nc1cc(Nc2nccc(-c3cn(C)c4ccccc34)n2)c(OCC(F)(F)F)nc1N(C)CCN(C)C [Example 2, mesylate salt of N-{2-{[2-(dimethylamino)ethyl](methyl)amino}-6-(2,2,2-trifluoroethoxy)-5-{[4-(1-methyl-1H-indol-3-yl)pyrimidin-2-yl]amino}pyridin-3-yl}acrylamide]
AUC(0-t) ([2]; both sexes, Sprague-Dawley, rat, iv, read-out: AUC0-t): 406 ng·h/mL | Cmax ([2]; both sexes, Sprague-Dawley, rat, iv, read-out: Cmax): 430 ng/mL | half-life ([2]; both sexes, Sprague-Dawley, rat, iv, read-out: T1/2 (elimination half-life) (converted)): 3.13 h | Inhibition effect on the growth of subcutaneously transplanted tumors [3]: good inhibition effect | Safety (body weight, toxic reaction) [3]: good safety | bioavailability ([1]; both sexes, Sprague-Dawley, rat, plasma, oral, intragastric vs intravenous, calculated from AUC0-t after dosage calibration, read-out: F (absolute bioavailability)): 28.3% | AUC(0-t) [1, 8]: 287 ng·h/mL | Cmax [1, 8]: 44.54 ng/mL | T1/2 (elimination half-life) [1, 8]: 8.33 h
